The record followed here is patent publication US20030083374A1, “NAALADase inhibitors useful as pharmaceutical compounds and compositions” (priority 1998, published 2003).

One test has as its system BB/W diabetic rats. Briefly: nerve conduction velocity in BB/W diabetic rats. Format: in vivo, Male BB/W rats. The conditions noted are these: 10 mg/kg daily; starting at 8 weeks, through six months. From the text:
Male BB/W rats (BR1, Mass) spontaneously develop a cell mediated autoimmune destruction of pancreatic B cells, resulting in onset of insulin-dependent (Type I) diabetes (Guberski 1994). […] This renders them valuable for experimental trials of new compounds for future treatments of this major disorder. In the present study, Compound 1 and Compound 2 were examined for their ability to alter the progression of diabetic neuropathy. The rats received daily injection of Compound 1 or Compound 2 (10 mg/kg i.p.) or vehicle, starting at the onset of diabetes (hyperglycemia) and up to 6 months thereafter. Another group of non-diabetic rats also receiving vehicle were tested. All animals were continuously monitored for body weight, urine volume, blood sugar and glycated haemoglobin. In the first month of the study, all animals were tested for thermal nociception in a Hargreaves apparatus, weekly. After the first month this was done biweekly and then monthly. The testing consists of directing an infrared heat source onto the […] surface of the rat hindpaw and noting the time taken for the animal to remove its paw (for detailed method see Hargreaves et al. 1998). […]
Nerve conduction velocity was also measured every two weeks through the first eight weeks of treatment and every month thereafter through to the six months of treatment (see De Koning et al. 1987 for method details). […]

The next test concerns STZ-diabetic animals. Nature of the test: motor and sensory nerve conduction velocity in STZ-diabetic animals. Format: in vivo, rats. The conditions noted are these: either dose (10 mg/kg or 1 mg/kg); significant after 12 weeks at 10 mg/kg, earlier at 1 mg/kg. How it is done:
(§1) Male Sprague-Dawley rats (200-225 g) were rendered diabetic by intravenous administration of streptozotocin (STZ, 70 mg/kg in phosphate buffered saline). Diabetic animals were divided into five groups: one group receiving Compound 2 (10 mg/kg or 1 mg/kg), Compound 1 (10 mg/kg or 1 mg/kg) or vehicle. Another group of animals (non-STZ treated) served as non-diabetic controls. Drug/vehicle treatment was started in diabetic animals 45 days post-STZ administration. STZ-induced diabetic rats were tested for sensitivity to a heat source as soon as blood glucose levels rose to 320 mg/dl or above (30 days post STZ). The rats were then acclimated to the Hargreaves apparatus and thermal nociception was monitored using an infrared heat source directed into the […] surface of the hindpaw, and the time taken for the animal to remove its paw noted to the nearest 0.1 seconds (see Hargreaves et al. 1998 for detailed method). The intensity of the beam source was adjusted such that the mean latency for control animals (non-STZ treated) was approximately 10 seconds. Each animal was tested 8 times and the mean difference score (between mean non-diabetic control latency and mean diabetic latency) are graphically presented in FIGS. 19A and 19B.
Motor and sensory nerve conduction velocity was also measured in STZ-diabetic animals after 4, 8 and 12 weeks of treatment (see De Koning and Gispen 1987 for detailed method). Briefly, stimulating needle electrodes were inserted close to the sciatic and tibial nerves with recording electrodes being placed subcutaneously over the distal foot muscles, in anesthetized rats.

Test [1] concerns STZ-induced diabetic rats. Briefly: in vivo assay on neuropathic pain in STZ-diabetic rats (Hargreaves). Set-up: species or system Male Sprague-Dawley rats. The settings on record: 10 mg/kg i.p. daily, started 45 days post-STZ. The protocol:
as §1

On to `O=C(O)CCC(CCS)C(=O)O` (stereo not drawn) [Compound 1, 2-(2-sulfanylethyl)pentanedioic acid], for which the “nerve conduction deficits vs. diabetic controls receiving vehicle” value with BB/W diabetic rats was “significantly less severe nerve conduction deficits”. Besides, in the test on STZ-diabetic animals, the “motor and sensory nerve conduction velocities vs. diabetic controls” value was “increased”. Besides, the “hyperalgesic response in diabetic rats” value in test [1] is “completely reversed”.
